Results on four molecules are retold here after patent US8614221B2, “Inhibitors of Akt activity” (Merck Sharp & Dohme Corp., priority 2009, dated 2013).

In one assay the target is T1, Akt1 kinase (Homo sapiens, UniProt P31749).
T1 construct: a middle T tag was added to the 5′ end of the full length Akt1 gene; middle T tag (EYMPME) (N); biotin tag (from pS2neo vector); made in house; host or cells: Drosophila S2 cells
Put plainly: Akt kinase assay (HTRF, GSK-derived biotinylated peptide substrate). The format is biochemical. The procedure: (§1) Activated Akt isoforms and pleckstrin homology domain deletion constructs were assayed utilizing a GSK-derived biotinylated peptide substrate. The extent of peptide phosphorylation was determined by Homogeneous Time Resolved Fluorescence (HTRF) using a lanthanide chelate(Lance)-coupled monoclonal antibody specific for the phosphopeptide in combination with a streptavidin-linked allophycocyanin (SA-APC) fluorophore which will bind to the biotin moiety on the peptide. When the Lance and APC are in proximity (i.e. bound to the same phosphopeptide molecule), a non-radiative energy transfer takes place from the Lance to the APC, followed by emission of light from APC at 665 nm.
(§2) Materials required for the assay:
(§3) A. Activated Akt isozyme or pleckstrin homology domain deleted construct
(§4) B. Akt peptide substrate: GSK3α (S21) Peptide #3928 biotin-GGRARTSSFAEPG (SEQ. ID. NO. 15), Macromolecular Resources.
(§5) C. Lance labeled anti-phospho GSK3α monoclonal antibody (Cell Signaling Technology, clone #27).
(§6) D. SA-APC (Prozyme catalog no. MSS lot #896067).
(§7) E. Microfluor®B U Bottom Microtiter Plates (Dynex Technologies, Catalog no. 7205).
(§8) F. Discovery® HTRF Microplate Analyzer, Packard Instrument Company.
(§9) G. 100× Protease Inhibitor Cocktail (PIC): 1 mg/mL benzamidine, 0.5 mg/mL pepstatin, 0.5 mg/mL leupeptin, 0.5 mg/mL aprotinin.
(§10) H. 10× Assay Buffer: 500 mM HEPES, pH 7.5, 1% PEG, […], 1 mM EGTA, 1% BSA, 20 mM θ-Glycerol phosphate.
(§11) I. Quench Buffer: 50 mM HEPES pH 7.3, 16.6 mM EDTA, 0.1% BSA, 0.1% Triton X-100, 0.17 nM Lance labeled monoclonal antibody clone #27, 0.0067 mg/mL SA-APC
(§12) J. ATP/MgCl2 working solution: 1× Assay buffer, 1 mM DTT, 1×PIC, 125 mM KCl, 5% Glycerol, 25 mM MgCl2, 375 μM ATP
(§13) K. Enzyme working solution: 1× Assay buffer, 1 mM DTT, 1×PIC, 5% Glycerol, active Akt. The final enzyme concentrations were selected so that the assay was in a linear response range.
(§14) L. Peptide working solution: 1× Assay buffer, 1 mM DTT, 1×PIC, 5% Glycerol, 2 μM GSK3 biotinylated peptide #3928
(§15) The reaction is assembled by adding 16 μL of the ATP/MgCl2 working solution to the appropriate wells of a 96-well microliter plate. Inhibitor or vehicle (1.0 μL) is added followed by 10 μL of peptide working solution. The reaction is started by adding 13 μL of the enzyme working solution and mixing. The reaction is allowed to proceed for 50 min and then stopped by the addition of 60 μL HTRF quench buffer. The stopped reactions were incubated at room temperature for at least 30 min and then read on the Discovery instrument.
Background: TR-FRET usually uses a lanthanide donor and a delayed reading to cut background.

In a further assay the target is T2, Akt2 kinase (Homo sapiens, UniProt P31751).
T2 construct: a middle T tag was added to the 5′ end of the full length Akt2 using the PCR primer; middle T tag (EYMPME) (N); biotin tag (from pS2neo vector); made in house; host or cells: Drosophila S2 cells
Described as above. It is filed as biochemical. The procedure:
as §1, §2, §3, §4, §5, §6, §7, §8, §9, §10, §11, §12, §13, §14, §15

T2 sequence (P31751 whole entry): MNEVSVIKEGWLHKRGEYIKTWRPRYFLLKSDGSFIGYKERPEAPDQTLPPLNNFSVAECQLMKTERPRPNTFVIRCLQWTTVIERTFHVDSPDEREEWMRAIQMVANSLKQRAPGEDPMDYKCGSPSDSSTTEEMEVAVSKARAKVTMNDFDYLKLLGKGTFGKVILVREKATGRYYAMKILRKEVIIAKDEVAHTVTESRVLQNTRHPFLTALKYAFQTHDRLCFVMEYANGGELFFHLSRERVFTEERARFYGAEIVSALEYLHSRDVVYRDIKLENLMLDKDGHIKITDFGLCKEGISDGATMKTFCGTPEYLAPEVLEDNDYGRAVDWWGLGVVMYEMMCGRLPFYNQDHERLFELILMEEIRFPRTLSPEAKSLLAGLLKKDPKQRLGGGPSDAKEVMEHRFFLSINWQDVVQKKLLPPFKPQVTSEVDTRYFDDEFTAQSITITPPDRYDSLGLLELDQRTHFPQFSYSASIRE
T1 sequence (P31749 whole entry): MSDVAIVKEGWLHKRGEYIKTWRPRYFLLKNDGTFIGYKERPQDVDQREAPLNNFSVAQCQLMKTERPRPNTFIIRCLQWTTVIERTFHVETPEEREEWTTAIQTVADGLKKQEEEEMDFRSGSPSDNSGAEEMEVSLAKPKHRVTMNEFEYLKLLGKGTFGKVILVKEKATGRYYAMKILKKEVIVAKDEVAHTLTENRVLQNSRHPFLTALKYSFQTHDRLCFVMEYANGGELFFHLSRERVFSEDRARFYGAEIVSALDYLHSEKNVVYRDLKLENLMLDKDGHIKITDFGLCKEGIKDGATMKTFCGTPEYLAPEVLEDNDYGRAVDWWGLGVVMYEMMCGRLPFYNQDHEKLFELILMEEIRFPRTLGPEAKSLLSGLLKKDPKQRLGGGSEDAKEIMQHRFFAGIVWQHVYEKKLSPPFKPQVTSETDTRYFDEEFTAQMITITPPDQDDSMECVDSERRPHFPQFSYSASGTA

`Cc1cc2ncc3cc(-c4ccccc4)c(-c4ccc([C@]5(N)C[C@@](O)(C6CC6)C5)cc4)nc3n2n1` [EXAMPLE 1-9, trans-3-amino-1-cyclopropyl-3-[4-(2-methyl-7-phenylpyrazolo[1,5-a]pyrido[3,2-e]pyrimidin-8-yl)phenyl]cyclobutanol]: the 50% inhibitory concentration (IC50) is 4 nM on Akt1 kinase and 29 nM at Akt2 kinase.

`c1ccc(-c2cc3cnc4nc(N5CCOCC5)nn4c3nc2-c2ccc(CN3CCC(c4nnc(-c5ccccn5)[nH]4)CC3)cc2)cc1` [EXAMPLE 12-3, 2-morpholin-4-yl-7-phenyl-8-(4-{[4-(5-pyridin-2-yl-4H-1,2,4-triazol-3-yl)piperidin-1-yl]methyl}phenyl)pyrido[3,2-e][1,2,4]triazolo[1,5-a]pyrimidine]: the IC50 stood at 4.6 nM on Akt1 kinase and 33.8 nM at Akt2 kinase.

In the case of `NC1(c2ccc(-c3nc4c(ccn5c(C6CC6)nnc45)cc3-c3ccccc3)cc2)CCC1` [EXAMPLE 9-2, 1-{4-[3-cyclopropyl-8-phenyl[1,2,4]triazolo[4,3-h]-1,7-naphthyridin-9-yl)phenyl}cyclobutanamine], the figures for the IC50 on Akt1 kinase and at Akt2 kinase were 32.7 nM and 33.8 nM, respectively.

With `C=CCNC(=O)C1CCN(Cc2ccc(-c3nc4c(cnc5cc(C)nn54)cc3-c3ccccc3)cc2)CC1` [EXAMPLE 15-3, 2-methyl-7-phenyl-8-(4-{[4-(prop-2-en-1-ylcarbamoyl)piperidin-1-yl]methyl}phenyl)pyrazolo[1,5-a]pyrido[3,2-e]pyrimidine], the values for the IC50 on Akt1 kinase and at Akt2 kinase were 37.2 nM and 578 nM, respectively.

One may read the IC50 as the concentration that gives 50% inhibition.
